Data on one sequence can be found in article PMC6940896, “Development of a Highly Efficient Hybrid Peptide That Increases Immunomodulatory Activity Via the TLR4-Mediated Nuclear Factor-κB Signaling Pathway” (International Journal of Molecular Sciences, 2019).

No end group written: not given here.

In data set [1] the test system is CTX-immunosuppressed Balb/c mice. The data set can be described thus: Body weight and immune organ indices in CTX-immunosuppressed mice. The format is in vivo, mouse. Particulars: CTX 80 mg/kg ip days 1-3, peptide 10 mg/kg ip days 4-10, n = 12. An excerpt: Female specific-pathogen-free (SPF) Balb/c mice (6-8 weeks of age, weighing 20 ± 2.0 g) were purchased from Charles River (Beijing, China). The mice were housed in a SPF environment at room temperature with a relative humidity of 55 ± 10% and allowed free access to food and water during the experiments. All of the animal protocols were approved by the Institutional Animal Care and Ethics Committee of the China Agricultural University (CAU20170430-4). […] Sigma-Aldrich, St. Louis, MO, USA) group, a LL-37 group, a Tα1 group, and a LTAa group. For the first 3 days, CTX (80 mg/kg mouse weight) was administered intraperitoneally once daily to establish the immunosuppressed animal model. From days 4 to 10 (7 days), peptides (10 mg/kg mouse weight) were administered intraperitoneally each day. The CTX group was only treated with CTX, and the control group was given sterile saline. The dose volume was 200 μL. Twenty-four hours after the last dose, the mice were killed and their tissues and blood collected for analysis. The body weight index was calculated in the following way:(2) Index (%)=final body weight-[…] body weight/initial body weight ×100% Spleen and thymus indices were calculated in the following way:(3) Index (mg/kg)=weight of thymus or spleen/body weight

The test system is the same in data set [2]. The data set can be described thus: Serum cytokine and immunoglobulin ELISA in CTX-immunosuppressed mice. It counts as in vivo, mouse. Particulars: peptide 10 mg/kg ip days 4-10, ELISA, n = 12. The procedure: Sigma-Aldrich, St. Louis, MO, USA) group, a LL-37 group, a Tα1 group, and a LTAa group. For the first 3 days, CTX (80 mg/kg mouse weight) was administered intraperitoneally once daily to establish the immunosuppressed animal model. From days 4 to 10 (7 days), peptides (10 mg/kg mouse weight) were administered intraperitoneally each day. The CTX group was only treated with CTX, and the control group was given sterile saline. The dose volume was 200 μL. Twenty-four hours after the last dose, the mice were killed and their tissues and blood collected for analysis. The body weight index was calculated in the following way:(2) Index (%)=final body weight-[…] body weight/initial body weight ×100% Serum was obtained from blood by centrifugation at 1000 × g for 20 min. Levels of TNF-α, IL-6, IL-1β, IgG, IgA, and IgM in the serum were detected by ELISA.
Background: In an ELISA, binding on a coated surface is turned into a signal by an enzyme label.

Data set [3] can be described thus: Ex vivo stability in plasma. The format is in vitro ADME. To be noted: rat plasma, in vitro, 37 °C, HPLC, log-linear regression; mean ± SEM of three biological replicates; read-out: t1/2, half-life in plasma (converted). The procedure: The samples were collected into pre-chilled tubes containing 1 mL of acidic acetone (hydrochloric acid/acetone/H2O, 1:40:5, by volume). Subsequently, the mixture was centrifuged at 2 × 10^4 rpm at 4 °C for 20 min. The precipitates were dried in vacuo. The dried precipitates were dissolved in 0.5 mL of 1 M acetic acid. The peptide analysis was carried out according to the protocol for the study of Tα1 using HPLC [51]. The half-lives of the target peptides were calculated by a logarithm-linear regression analysis of the peptide concentrations.

For the sequence IGKEFKRIVQRIKDFLRNLVPRTEKEKKEVVE [LTAa], in data set [1], the body weight entry is given as “rapidly recovered their weight”; the “spleen and thymus index” value is “reversed this effect”. In addition, in data set [2], the “serum TNF-α, IL-6 and IL-1β levels” value was “significantly higher TNF-α, IL-6, and IL-1β concentrations than those in the Tα1- or LL-37-treated groups”. The half-life in data set [3] is 4.2 ± 1.13 h.
